The test system of one test is primary cardiomyocytes. Nature of the test: Keto amino acid production in BHB-treated cardiomyocytes. It counts as cell-based, human. As to conditions: BHB 25 mM, overnight. The protocol:
Human induced pluripotent stem cells (iPSCs) culture and cardiac differentiation into cardiomyocytes (CMs). Human iPSCs from healthy donors were provided by Stanford Cardiovascular Institute Biobank and cultured in the E8 medium. When iPSCs were grown to 95% confluence, the E8 medium was replaced with RPMI 1640 (GIBCO) supplemented with B27 minus insulin (GIBCO) and 5 µM CHIR-99021 (Selleck Chemicals) to start cardiac differentiation at day 0. On day 2, the medium was replaced with RPMI-B27 minus insulin. On day 3, the medium was changed to RPMI-B27 minus insulin containing 5 μM IWR-1 (Selleck Chemicals) and was maintained for 48 hours. On day 5, the medium was changed back to RPMI-B27 minus insulin and was maintained for 48 hours. Then, the cells were incubated with complete CM medium consisting of RPMI 1640 medium and B27 supplement plus insulin (GIBCO). On day 12, the medium was replaced with RPMI-B27 without D-glucose (GIBCO) for metabolic purification of CMs for 4 days. Then, the medium was changed to the complete CM medium and replaced every 2 days. Human iPSC-CMs were dissociated by TrypLE Express (GIBCO) and re-plated on Matrigel-coated 12-well plate for further experiments. Cultures were maintained at 37° C. in a humidified incubator with 5% (v/v) CO^2.
Cellular enzyme activity assays. Cells were plated in 12-well plates at 70-80% confluence. […]

A further test has as its system brain lysate proteins. Nature of the test: Competition of X-Phe photoprobe-labeled brain proteins, quantitative shotgun proteomics. It counts as binding, mouse. As to conditions: 100 μM photoprobe; 50-fold excess competitor. The protocol: Shotgun proteomics of X-Phe photoprobe-labeled proteins. Brains from wild type C57BL/6J mice were harvested and homogenized using a bead blaster in PBS. Brain homogenate was centrifuged (15,000 rpm, 10 min) to yield the cytosolic supernatant and membrane pellet fractions. The cytosolic fraction was transferred to a new eppie and centrifuged again (15,000 rpm, 10 min). This process was repeated 4 times until no pellet was present after centrifugation. The membrane pellet was washed with 1 ml PBS and centrifuged (15,000 rpm, 10 min); this step was also repeated 4 times to remove any cytosolic protein contamination. After the centrifugation steps, the membrane pellet was re-suspended in PBS and sonicated. For competition experiments, brain lysate was normalized to 2 mg/ml in PBS and incubated with competitors at the indicated concentrations at room temperature for 30 minutes. 100 μM of the photoprobe was added and the reactions incubated on ice for 10 minutes protected from light. Reactions were then put under UV for 1 min on a UV Stratalinker. A biotin click reaction was performed by adding the following reagents to the indicated final concentrations: […], 1 mM CuSO4, 1 mM TCEP (freshly prepared), 30 μM Biotin-N3. Reactions were allowed to proceed for 1 hour at room temp, protected from light, and while rotating. The following prep was adapted from Niphakis et al. 2015. To each reaction, the following solvents were added in order, 4 ml cold methanol, 1 ml cold chloroform, 2 ml cold PBS. The mixture was vortexed well and centrifuged (4,600×g, 15 min, 4° C.). After centrifugation the organic and aqueous layers were removed without disruption of the protein disc. The protein disc was washed with a cold 1:1 mixture of methanol:chloroform 3 times. After the final wash, the protein disc was re-suspended in a 4:1 mixture of methanol:chloroform and sonicated. The insoluble protein was pelleted by centrifugation (4,600×g, 15 min, 4 C) and the pellet re-suspended in freshly prepared 500 μl of 6 M urea in PBS. 20 μl of 10% (w/v) SDS was added to the solution. The solution was then warmed in a 37 C water bath for 10 min to help dissolve poorly soluble protein. A streptavidin pulldown was the performed on the protein mixture. 250 μl of streptavidin beads were washed 3 times with 1 ml PBS. Protein samples were diluted with 5.5 ml of 0.25% SDS in PBS and incubated with streptavidin beads for 1.5 hr at room temperature. Following incubation, beads were washed 5 times each with 0.25% SDS in PBS, then PBS, then lastly with ultra-pure water Steptavidin beads were suspended in 150 μL resuspension buffer (1 M urea, 50 mM Tris-HCl, pH 8). Proteins were digested with 3 μg of trypsin for 4 hours. Digested peptides were reduced with 5 mM TCEP for 10 minutes. Cys residues were alkylated using 15 mM iodoacetimide (IAA) for 20 minutes. Finally, excess IAA was quenched with 10 mM DTT. Acidified digested peptides were desalted over C18 StageTips [PMID: 12585499]. Peptides were then eluted with 80% acetonitrile, 0.1% TFA and dried in a speedvac. Dried samples were reconstituted with 200 mM EPPS buffer, pH 8.0, and labelled with TMT reagents (Thermo Fisher Scientific). Following incubation at room temperature for 2 h, the reactions were quenched with hydroxylamine to a final concentration of 0.5% (v/v). […]

Molecules are shown by their SMILES.

With `CC(O)CC(=O)N[C@@H](Cc1ccccc1)C(=O)O` (stereo partly drawn) [BHB-Phe, N-betahydroxybutyryl-phenylalanine], in the test with primary cardiomyocytes, the “keto amino acid production by cardiomyocytes” value is listed as “minor amount”. Also, in the test with brain lysate proteins, the “competition of X-Phe photoprobe-labeled proteins” value is reported as more than 80%; the “number of brain proteins crosslinked by X-Phe photoprobe and >80% competed by Keto-Phe” value stood at 32 proteins.

These data come from patent US20260325473A1, “N-Beta-Hydroxybutyryl-Amino Acids and Related Compositions and Methods” (The Board of Trustees of the Leland Stanford Junior …, priority 2023, published 2026).
